The test concerns the target T1, PAR4 (Homo sapiens, UniProt Q96RI0).
T1 construct: expressed in transfected cells; host or cells: HEK293 PAR4 Clone 1.2A (BMS Arctic ID 383940)
T1 sequence (Q96RI0 18-385): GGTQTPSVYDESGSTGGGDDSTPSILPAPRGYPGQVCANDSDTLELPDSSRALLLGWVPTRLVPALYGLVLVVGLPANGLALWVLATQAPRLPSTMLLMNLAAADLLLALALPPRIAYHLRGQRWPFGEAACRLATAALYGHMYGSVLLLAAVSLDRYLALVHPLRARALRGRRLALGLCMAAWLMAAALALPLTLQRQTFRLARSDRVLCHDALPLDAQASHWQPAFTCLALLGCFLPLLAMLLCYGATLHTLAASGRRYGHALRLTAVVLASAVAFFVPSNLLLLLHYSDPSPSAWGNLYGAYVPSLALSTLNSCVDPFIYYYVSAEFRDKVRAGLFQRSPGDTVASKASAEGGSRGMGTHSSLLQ
The experiment in a line: PAR4 FLIPR assay (antagonism of agonist peptide-induced calcium mobilization). The format is cell-based. In a few lines:
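Antagonism was taken as block of calcium mobilization evoked by the agonist peptide H-Ala-Phe(4-F)-Pro-Gly-Trp-Leu-Val-Lys-Asn-[…]-NH2, added after 30 min room-temperature compound preincubation in dye-loaded PAR4-transfected HEK293 cells (endogenous PAR1). Fluorescence was read on FDSS, with compound addition alone used as the agonist counter-screen; values come from 11-point concentration-response curves.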
With `COc1cnc2c(-c3nc4ccc5c(c4s3)OC[C@H](COC(=O)Nc3ccc(F)nc3)O5)cc(C)cc2n1` [Example 112, (R)-(2-(2-methoxy-7-methylquinoxalin-5-yl)-7,8-dihydro-[1,4]dioxino[2′,3′:3,4]benzo[1,2-d]thiazol-7-yl)methyl (6-fluoropyridin-3-yl)carbamate], the IC50 (in general, the concentration that inhibits the measured activity by half) was 7.1 nM.
As for `COc1cnc2c(-c3nc4ccc5c(c4s3)C[C@@H](C(C)O)O5)cc(C)cc2n1` (mixture of isomers) [Example 190], the IC50 is 24 nM.
Regarding `COc1cnc2c(-c3nc4ccc5c(c4s3)C[C@@H](CNC(=O)O[C@@H]3CCOC3)O5)cc(C)cc2n1` [Example 230, (R)-tetrahydrofuran-3-yl (((S)-2-(2-methoxy-7-methylquinoxalin-5-yl)-7,8-dihydrobenzofuro[5,4-d]thiazol-7-yl)methyl)carbamate], the IC50 turned out to be 6.4 nM.
Turning to `COc1cnc2c(-c3nc4ccc5c(c4s3)C[C@](C)(COC(=O)Nc3cccc(C#N)c3)O5)cc(C)cc2n1` [Example 196, (R)-(2-(2-methoxy-7-methylquinoxalin-5-yl)-7-methyl-7,8-dihydrobenzofuro[5,4-d]thiazol-7-yl)methyl (3-cyanophenyl)carbamate], the IC50 was 1.6 nM.
Then `CCOc1cnc2c(-c3nc4cc(F)c5c(c4s3)C[C@@H](CO)O5)cc(C)cc2n1` [Example 152, (S)-(2-(2-ethoxy-7-methylquinoxalin-5-yl)-5-fluoro-7,8-dihydrobenzofuro[5,4-d]thiazol-7-yl)methanol], with 11 nM; and `COc1cnc2c(-c3nc4cc(F)c5c(c4s3)[C@@H](C)[C@H](COC(=O)Nc3cnc(OCCO)nc3)O5)cc(C)cc2n1` [Example 252, ((7R,8R)-5-fluoro-2-(2-methoxy-7-methylquinoxalin-5-yl)-8-methyl-7,8-dihydrobenzofuro[5,4-d]thiazol-7-yl)methyl (2-(2-hydroxyethoxy)pyrimidin-5-yl)carbamate], with 88 nM; and `COc1cnc2c(-c3nc4c(C)cc5c(c4s3)OCC(COC(=O)Nc3cnc(C)nc3)O5)cc(C)cc2n1` (stereo not drawn) [Example 79, (2-(2-methoxy-7-methylquinoxalin-5-yl)-4-methyl-7,8-dihydro-[1,4]dioxino[2′,3′:3,4]benzo[1,2-d]thiazol-7-yl)methyl (2-methylpyrimidin-5-yl)carbamate], with 29 nM.
Consider `COc1cnc2c(-c3nc4c(C)cc5c(c4s3)OC[C@H](COC(=O)Nc3ccc(C)nc3)O5)cc(C#N)cc2n1` [Example 91, (R)-(2-(7-cyano-2-methoxyquinoxalin-5-yl)-4-methyl-7,8-dihydro-[1,4]dioxino[2′,3′:3,4]benzo[1,2-d]thiazol-7-yl)methyl (6-methylpyridin-3-yl)carbamate], for which the IC50 was 1.1 nM.
On to `Cc1cc(-c2nc3c(F)cc4c(c3s2)OC(CO)CO4)c2ncc(OC(F)F)nc2c1` (stereo not drawn) [Example 22, (2-(2-(difluoromethoxy)-7-methylquinoxalin-5-yl)-4-fluoro-7,8-dihydro-[1,4]dioxino[2′,3′:3,4]benzo[1,2-d]thiazol-8-yl)methanol], for which the IC50 turned out to be 8.8 nM.
Then `COc1ccc(NC(=O)OC[C@H]2COc3c(cc(Cl)c4oc(-c5cc(C)cc6nc(OC)cnc56)cc34)O2)cn1` [Example 9, (R)-(6-chloro-8-(2-methoxy-7-methylquinoxalin-5-yl)-2,3-dihydro-[1,4]dioxino[2,3-e]benzofuran-3-yl)methyl (6-methoxypyridin-3-yl)carbamate], with 1.8 nM.
With `COc1cnc2c(-c3nc4c(C)cc5c(c4s3)OC[C@H](COC(=O)Nc3ccc(C)nc3)O5)cc(CO)cc2n1` [Example 100, (R)-(2-(7-(hydroxymethyl)-2-methoxyquinoxalin-5-yl)-4-methyl-7,8-dihydro-[1,4]dioxino[2′,3′:3,4]benzo[1,2-d]thiazol-7-yl)methyl (6-methylpyridin-3-yl)carbamate] the figure was 1.8 nM; with `COc1cnc2c(-c3nc4ccc5c(c4s3)OC[C@H](COC(=O)Nc3cnc(OC[C@H](C)O)nc3)O5)cc(Cl)cc2c1` [Example 288, ((R)-2-(6-chloro-3-methoxyquinolin-8-yl)-7,8-dihydro-[1,4]dioxino[2′,3′:3,4]benzo[1,2-d]thiazol-7-yl)methyl (2-((S)-2-hydroxypropoxy)pyrimidin-5-yl)carbamate], 2.2 nM; with `COc1cnc2c(-c3nc4ccc5c(c4s3)CC(CNC(=O)OCc3ccccc3)O5)cc(C)cc2n1` (stereo not drawn) [Example 193, Benzyl ((2-(2-methoxy-7-methylquinoxalin-5-yl)-7,8-dihydrobenzofuro[5,4-d]thiazol-7-yl)methyl)carbamate], 5.3 nM.
For the compound `COC(=O)[C@@H]1Cc2c(ccc3nc(-c4cc(C)cc5nc(OC)cnc45)sc23)O1` [Example 156, (S)-methyl 2-(2-methoxy-7-methylquinoxalin-5-yl)-7,8-dihydrobenzofuro[5,4-d]thiazole-7-carboxylate], the IC50 was 28 nM.
As for `COc1cnc2c(-c3cc4c5c(cc(Cl)c4o3)O[C@@H](COC(=O)Nc3ccnc(C)c3)CO5)cc(C)cc2n1` [Example 8, (R)-(6-chloro-8-(2-methoxy-7-methylquinoxalin-5-yl)-2,3-dihydro-[1,4]dioxino[2,3-e]benzofuran-3-yl)methyl (2-methylpyridin-4-yl)carbamate], the IC50 worked out at 1.4 nM.
Turning to `COc1cnc2c(-c3nc4c(Cl)cc5c(c4s3)OC[C@H](COC(=O)Nc3cncc(C)c3)O5)cc(C)cc2n1` [Example 63], the IC50 came to 4.3 nM.
In the case of `COc1cnc2c(-c3nc4ccc5c(c4s3)OC[C@H](COC(=O)Nc3cnc(C)nc3)O5)cc(CF)cc2c1` [Example 276, (R)-(2-(6-(fluoromethyl)-3-methoxyquinolin-8-yl)-7,8-dihydro-[1,4]dioxino[2′,3′:3,4]benzo[1,2-d]thiazol-7-yl)methyl (2-methylpyrimidin-5-yl)carbamate], the IC50 was 140 nM.
With `COc1ccc(NC(=O)OCC2Cc3c(cc(Cl)c4nc(-c5cc(C)cc6nc(OC)cnc56)sc34)O2)cn1` (stereo not drawn) [Example 17, (4-chloro-2-(2-methoxy-7-methylquinoxalin-5-yl)-7,8-dihydrobenzofuro[5,4-d]thiazol-7-yl)methyl (6-methoxypyridin-3-yl)carbamate] the figure was 3.1 nM; with `COc1cnc2c(-c3nc4c(C)cc5c(c4s3)OC[C@H](COC(=O)Nc3ccc(-c4cccs4)nc3)O5)cc(C)cc2n1` [Example 53, (R)-(2-(2-methoxy-7-methylquinoxalin-5-yl)-4-methyl-7,8-dihydro-[1,4]dioxino [2′,3′:3,4]benzo[1,2-d]thiazol-7-yl)methyl (6-(thiophen-2-yl)pyridin-3-yl)carbamate], 54 nM; with `COc1cnc2c(-c3nc4ccc5c(c4s3)C[C@](C)(COC(=O)Nc3cccnc3)O5)cc(C)cc2n1` [Example 195, (R)-(2-(2-methoxy-7-methylquinoxalin-5-yl)-7-methyl-7,8-dihydrobenzofuro[5,4-d]thiazol-7-yl)methyl pyridin-3-ylcarbamate], 3.5 nM.
In the case of `COc1cnc2c(-c3nc4c(C)cc5c(c4s3)OC[C@H](COC(=O)Nc3ccc4ncsc4c3)O5)cc(C)cc2n1` [Example 50, (R)-(2-(2-methoxy-7-methylquinoxalin-5-yl)-4-methyl-7,8-dihydro-[1,4]dioxino[2′,3′:3,4]benzo[1,2-d]thiazol-7-yl)methyl benzo[d]thiazol-6-ylcarbamate], the half-maximal inhibitory concentration (IC50) was 140 nM.
For the compound `CCOc1cnc2c(-c3nc4cc(F)c5c(c4s3)C[C@H](COC(=O)Nc3cnc(C)nc3)O5)cc(C)cc2n1` [Example 153, (R)-(2-(2-ethoxy-7-methylquinoxalin-5-yl)-5-fluoro-7,8-dihydrobenzofuro[5,4-d]thiazol-7-yl)methyl (2-methylpyrimidin-5-yl)carbamate], the IC50 was 2.4 nM.
Then `COc1cnc2c(-c3nc4ccc5c(c4s3)C[C@@H](CNC(=O)OCC(C)C)O5)cc(C)cc2n1` [Example 224, (S)-isobutyl ((2-(2-methoxy-7-methylquinoxalin-5-yl)-7,8-dihydrobenzofuro [5,4-d]thiazol-7-yl)methyl)carbamate], with 4 nM; and `COc1cnc2c(-c3nc4c(C)cc5c(c4s3)OCC(COC(=O)Nc3ccnc(O)c3)O5)cc(C)cc2n1` (stereo not drawn) [Example 3, (2-(2-methoxy-7-methylquinoxalin-5-yl)-4-methyl-7,8-dihydro-[1,4]dioxino[2′,3′:3,4]benzo[1,2-d]thiazol-7-yl)methyl (2-hydroxypyridin-4-yl)carbamate], with 12 nM.
For the compound `COc1cnc2c(-c3nc4c(Cl)cc5c(c4s3)C[C@@H](COC(=O)Nc3ccc(C)nc3)O5)cc(C)cc2n1` (single isomer, unassigned) [Example 147], the IC50 was 14 nM.
Then `COc1cnc2c(-c3nc4cc(F)c5c(c4s3)[C@H](C)[C@@H](CO)O5)cc(Cl)cc2c1` [Example 290, ((7S,8S)-2-(6-chloro-3-methoxyquinolin-8-yl)-5-fluoro-8-methyl-7,8-dihydrobenzofuro[5,4-d]thiazol-7-yl)methanol], with 0.8 nM; and `COc1cnc2c(-c3nc4c(Cl)cc5c(c4s3)OC[C@H](COC(=O)Nc3cccc(C#N)c3)O5)cc(C)cc2n1` [Example 27, (R)-(4-chloro-2-(2-methoxy-7-methylquinoxalin-5-yl)-7,8-dihydro-[1,4]dioxino[2′,3′:3,4]benzo[1,2-d]thiazol-7-yl)methyl (3-cyanophenyl)carbamate], with 2.2 nM.

Values taken from patent US11932658B2 (BRISTOL-MYERS SQUIBB COMPANY, priority 2016, dated 2024).
